A short description of data set [1]: Maximum tolerated dose in mice. Conditions: mouse, ip. The source says:
Because of the difficulty of repeated tail vein injections in mice, our group is using IP administration of compound.
All of these derivatives are currently being assessed for their maximum tolerated dose (MTD) in healthy mice. Compounds are formulated in HPβCD and delivered by IP injection to two mice once daily for five days.

The nature of data set [2]: Aqueous solubility in pH 7.4 PBS by LC-MS. The class given is physicochemical. Put shortly: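 Solid compound was sonicated 30 min in pH 7.4 PBS (the bath warmed to 45 °C, samples were cooled before filtration) and passed through a 0.45 μm filter. Filtrate was quantified by LC-MS with UV at 275 nm against a 1–100 μM DNQ calibration curve, which was also applied to derivatives. Strongly coloured filtrates were diluted 10-fold in PBS.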

Data set [3] has as its system PAR-PARP1. In words: PARP1 hyperactivation (PAR-PARP1 formation) in vivo in orthotopic Lewis Lung Carcinoma model, immunoblotting. Details: species or system NOD/SCID mice. Conditions: iv at or near MTD. The procedure: Antibodies that specifically detect poly(ADP-ribosyl)ated α-PAR (BD Pharmingen, San Jose, Calif.) proteins (e.g., the most abundant species, poly(ADP-ribosyl)ated PARP1, PAR-PARP1) and α-PARP1 (sc-8007, Santa Cruz Biotechnology) antibodies were used at 1:4000 and 1:2000 dilutions, respectively. α-Tubulin was monitored for loading.
To generate a known control to monitor the formation of poly(ADP-ribose)ylated-polymerase 1 (PAR-PARP1) in cells, LLC tumor cells were treated in vitro with hydrogen peroxide (H2O2, 0.5 μM) for 15 minutes, and whole cell protein lysates were separated by SDS-PAGE using the α-PAR (BD Pharmingen, San Jose, Calif.) antibody described above. PAR-PARP1 formation was then assessed by immunoblot analyses as previously described in Huang et al., Cancer Research, 2012.
LLC cells (1.0×10^6) were intravenously (iv) injected into the tail veins of female 18-20 gram NOD/SCID mice. Establishment of tumor nodules in the lungs of exposed mice were confirmed by bioluminescence and mice (5/group) were treated intravenously (via tail vein injection) with: (i) hydroxypropyl-beta-cyclodextrin (HPRCD) vehicle alone; (ii) DNQ (7.5 mg/kg); (ii) DNQ-87 (14 mg/kg); (iii) DNQ-107 (10 mg/kg); or (vi) DNQ 9-251 (20 mg/kg) dissolved in HPRCD. At specific times indicated (in mins) after injection of vehicle or drug, mice were euthanized, lungs removed and tumor nodules harvested. […] Extracts from cells treated with H2O2 were used as controls for monitoring PAR-PARP1 formation in LLC tumor cells.
Background: A western blot detects proteins with antibodies after separation by electrophoresis.

Data set [4] can be described thus: Solubility in organic solvents. The class given is physicochemical. Conditions: for solubility: organic solvent or mixture, thermodynamic from solid. Here is the method: The solubility of DNQ derivatives in organic solvents was determined by measuring the amount of a given solvent required to dissolve a known amount of compound. Solvent was added to the compound in 50 μL aliquots and the slurry was sonicated. […] Solubility was assessed in DMSO, dichloromethane, and 33% methanol in dichloromethane (FIGS. 9, 10, and 11, respectively).

The subject of data set [5] is MCF-7 cells. In words: Cytotoxicity to MCF-7 cells with or without 25 μM dicoumarol (sulforhodamine B assay). It counts as cell-based, human. Particulars: for IC50: Homo sapiens; for Fold Protection of MCF7 cells w/ 25 μM dicoumarol: Table 1. Put shortly:
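MCF-7 cells, which express high NQO1, were exposed to compounds for 2 hours with or without 25 μM dicoumarol. They were then washed and kept 72 hours in fresh media. Cell death was measured by sulforhodamine B assay.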

Data set [6] in a line: Solubility in 20% HPβCD solution (pH modulation protocol). The class given is physicochemical. Conditions: for solubility: pH 7.4, aqueous with cosolvent or surfactant or cyclodextrin, thermodynamic from solid, Table 4.3. Put shortly: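 Compound slurried in 20% HPβCD in pH 7.4 PBS, dissolved by raising pH with 10 M NaOH, then brought back to pH 7.5-8.0 with 1 M HCl. Solubility compared with buffer alone.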

A short description of data set [7]: Solubility in organic solvents. The class given is physicochemical. Conditions: organic solvent or mixture, thermodynamic from solid; THF; Table 1.
Setting [8] is: phosphate buffered saline, pH 7.4, aqueous buffer, thermodynamic from solid, PBS pH 7.4, Table 4.3.
The mark [9] stands for this setting: 2:1 CH2Cl2:MeOH, Table 4.3, read-out: Solubility in 2:1 CH2Cl2:MeOH.
Setting [10] is: CH2Cl2:MeOH 2:1, Table 1, read-out: CH2Cl2:MeOH 2:1 solubility.
The mark [11] stands for this setting: CH2Cl2, Table 1, read-out: CH2Cl2 solubility.
Setting [12] is: DMSO, Table 1, read-out: DMSO solubility.
[13] abbreviates: MCF7, Table 1, read-out: MCF7 IC50.
[14] abbreviates: MCF7, Table 4.2, no DIC, ± s.e., read-out: IC50 vs. MCF-7 cells.
Setting [15] is: MCF7, classification in figure legends of FIGS. 7-11, read-out: IC50 ("active" / generally "inactive" compounds).
[16] abbreviates: MCF7, read-out: IC50 vs. MCF-7 cells +25 μM DIC, Table 4.2, +25 μM DIC, ± s.e.
[17] abbreviates: 20% HPβCD in pH 7.4 PBS, 20% HPβCD.

The values below come from patent publication US10285986B2, “Compounds and anti-tumor NQO1 substrates” (The Board of Trustees of the University of Illinois, priority 2011, dated 2019).

≈ marks a conversion by molar mass, not a printed value. Where “and” joins values, the source holds several entries; their conditions need not be identical. Equal entries are not always repeated. Where two headings read alike, the source gives them in different places.

Consider `Cc1cc(=O)[nH]c2c1C(=O)c1c(C)cc(=O)n(CC(C)C)c1C2=O` [Compound 87], for which, in data set [1] (in vivo), the MTD at 5 days was 14 mg/kg and 44 µmol/kg. For the same molecule, the concentration in solution in data set [2] (setting [8]) (solubility at 30 min) came to 0.115 mM (≈ 37.5 µg/mL). The “PAR-PARP1 formation in tumor tissue” value in data set [3] is “higher levels of PAR-PARP1 formation”. In data set [4] (CH2Cl2, Table 4.3), the “Solubility in CH2Cl2” value is on record as 180 mM (≈ 58700 µg/mL). Moreover, the “Solubility in DMSO” value in data set [4] (DMSO, Table 4.3) is on record as 110 mM (≈ 35900 µg/mL). Besides, the solubility – broadly, how much of the substance goes into solution per volume – in data set [4] (setting [9]) was determined as 140 mM (≈ 45700 µg/mL); in data set [4] (setting [10]), 140 mM (≈ 45700 µg/mL); in data set [4] (setting [11]) it was 180 mM (≈ 58700 µg/mL); in data set [4] (setting [12]) it was 110 mM (≈ 35900 µg/mL); in data set [6] (setting [17]) it was 13 mM (≈ 4240 µg/mL); in data set [7], 34 mM (≈ 11100 µg/mL). For the same molecule, the IC50 in data set [5] (setting [13]) was 250 nM; in data set [5] (setting [14]) it was 230 ± 20 nM; in data set [5] (setting [15]), less than 500 nM; in data set [5] (setting [16]) it was 1100 ± 100 nM. For the same molecule, the “Fold Protection of MCF7 cells w/ 25 μM dicoumarol” value in data set [5] turned out to be 6.1. Besides, the “Fold protection by DIC” value in data set [5] (Table 4.2) was 4.8.
As to `Cc1cc(=O)[nH]c2c1C(=O)c1c(C)cc(=O)n(C)c1C2=O` [DNQ, Deoxynyboquinone, reference compound], in data set [1] (in vivo), the MTD is approximately 5 mg/kg. Moreover, the values for the MTD at 5 days in data set [1] (in vivo) and in data set [1] were 5 mg/kg and 18 µmol/kg, respectively. The solubility at 30 min in data set [2] (pH 7.4 PBS) is 0.1 mM (≈ 28.4 µg/mL); in data set [2] (setting [8]), 0.115 mM (≈ 32.7 µg/mL); in data set [2] (phosphate buffered saline, pH 7.4, aqueous buffer, thermodynamic from solid, pH 7.4 PBS), 0.115 mM (≈ 32.7 µg/mL). In addition, the “PAR-PARP1 formation in tumor tissue” value in data set [3] is reported as “formation of PAR-PARP1”. In data set [4] (CH2Cl2, Table 4.3), the “Solubility in CH2Cl2” value was determined as 0.7 mM (≈ 199 µg/mL). Also, the “Solubility in DMSO” value in data set [4] (DMSO, Table 4.3) amounted to 3.1 mM (≈ 881 µg/mL). In addition, the solubility in data set [4] (setting [9]) stood at 8.5 mM (≈ 2420 µg/mL); in data set [4] (setting [10]) it was 8.5 mM (≈ 2420 µg/mL); in data set [4] (setting [11]), 0.7 mM (≈ 199 µg/mL); in data set [4] (setting [12]), 3.1 mM (≈ 881 µg/mL); in data set [6] (setting [17]) it was 3.3 mM (≈ 938 µg/mL); in data set [7] it was 0.42 mM (≈ 119 µg/mL). The IC50 in data set [5] (MCF7, 2 h, Table 4.1, 2 h exposure, no DIC, ± s.e., read-out: IC50 vs. MCF-7 cells) is 130 ± 20 nM; in data set [5] (setting [13]) it was 190 nM; in data set [5] (setting [14]), 130 ± 20 nM; in data set [5] (setting [15]), less than 500 nM; in data set [5] (MCF7, read-out: IC50 vs. MCF-7 cells +25 μM DIC, Table 4.1, +25 μM DIC, ± s.e.), 1700 ± 300 nM; in data set [5] (setting [16]), 1800 ± 300 nM. Moreover, the “Fold Protection of MCF7 cells w/ 25 μM dicoumarol” value in data set [5] is 7.8. Further, the “Fold protection by DIC” value in data set [5] (Table 4.1) and in data set [5] (Table 4.2) was 14 throughout. In addition, the “fold increase in solubility in HPβCD over PBS alone” value in data set [6] (20% HPβCD) is 30 fold. Moreover, in data set [6] (20% HPβCD in pH 7.4 PBS), the “solution concentration in HPβCD” value came out at 3.3 mM. Also, the “solution concentration a 40% HPβCD solution would permit” value in data set [6] (40% HPβCD, linear extrapolation) was 6.6 mM.
